The assay concerns the target T1, Recombinant human renin (Homo sapiens, UniProt P00797).
T1 construct: isolate the active form (residues 67-406); made in house
T1 sequence (P00797 67-406): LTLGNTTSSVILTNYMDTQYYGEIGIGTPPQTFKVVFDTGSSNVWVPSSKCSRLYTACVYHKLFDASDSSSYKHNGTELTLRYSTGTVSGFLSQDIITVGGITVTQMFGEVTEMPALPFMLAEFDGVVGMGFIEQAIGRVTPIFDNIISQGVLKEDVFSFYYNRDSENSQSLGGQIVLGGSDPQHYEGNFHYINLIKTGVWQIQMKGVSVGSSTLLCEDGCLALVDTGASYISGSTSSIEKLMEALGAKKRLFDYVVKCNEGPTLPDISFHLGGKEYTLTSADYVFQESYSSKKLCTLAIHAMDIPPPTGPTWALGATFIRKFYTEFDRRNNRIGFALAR
As to the kind of experiment: In vitro enzymatic activity assay of renin inhibitors (fluorogenic peptide substrate). In kind it is biochemical. Particulars: recombinant human renin 3 nM, 1 μM substrate QXL520/HiLyteFluo488 peptide, pH 7.4, 37° C., fluorescence; values given as ranges; read-out: IC50 of Exemplified Compounds Against Renin, IC50. The text has this: Test compounds in varying concentrations may be reacted with recombinant human renin in the presence of substrate, e.g., QXL520-γ-Abu-Ile-His-Pro-Phe-His-Leu-Val-Ile-His-Thr-Lys (HiLyteFluo488)-Arg-OH (Anaspec, San Jose, Calif.). The reaction can be followed kinetically using fluorescence (excitation λ=485 nm; emission λ=538 nm). Inhibition constants (IC50) may be calculated by non-linear curve fitting of the compound concentrations and fluorescence intensities to the standard IC50 equation.
Solutions of test compounds in varying concentrations (≦2 mM final concentration) are prepared in dimethyl sulfoxide (DMSO) and then diluted into assay buffer comprising 50 mM Hepes, 1 mM EDTA, 1 mM DTT, 0.1 mg/ml BSA, 0.01% Brij35, pH 7.4. Alternatively, the assay can be performed with a high BSA concentration, wherein the buffer contains an additional 2% BSA.
Recombinant human renin (3 nM final concentration) is added to the dilutions and pre-incubated with the compounds for 10 minutes at 37° C. As described in Examples A-C above, human renin can be obtained by expressing preprorenin (residue 1-406) in mammalian cells, treating the prorenin (residues 24-406) contained in the culture supernatant with trypsin, and isolate the active form (residues 67-406). After pre-incubation, the reaction is initiated with 1 μM of substrate QXL520-γ-Abu-Ile-His-Pro-Phe-His-Leu-Val-Ile-His-Thr-Lys (HiLyteFluo488)-Arg-OH (Anaspec, San Jose, Calif.). The final DMSO in the assay is 5%. The total volume of the reaction mixture is 20 μL, which can be placed on Greiner 384-well small volume plates.
Renin activity may be determined via fluorescence (excitation λ=485 nm; emission λ=538 nm), e.g., on a Molecular Devices SPECTROmax GEMINI XPS. The fluorescence intensity is determined upon the addition of substrate and determined again after incubation at 37° C. for one hour. The fluorescence intensity of a blank (no inhibition) using vehicle alone is also determined. Renin activity is linearly proportional to the change in fluorescence observed (final−initial).
The percent inhibition of renin at a given compound concentration is defined as:
100%×[1−(Fcompound/Fblank)]
where Fcompound is the observed fluorescence at a given concentration of test compound and Fblank is the observed fluorescence in the presence of vehicle alone.
The pIC50 value (negative log of the molar concentration of the compound that produces 50% inhibition) of a test compound is calculated by non-linear least squares curve fitting of the equation:
Percent Inhibition=100%/(1+(10^−pIC50/10^log [I]))
to percent inhibition versus compound concentration. The 50% inhibitory concentration (IC50) of a test compound is calculated by raising 10 to the negative pIC50 (10^−pIC50).
As for `O=C(c1nc(-c2cccnc2)sc1-c1ccccc1)N1CCNC[C@H]1Cc1ccccc1` [Example 30, (R)-(2-benzylpiperazin-1-yl)(5-phenyl-2-(pyridin-3-yl)thiazol-4-yl)methanone], the IC50 (commonly the midpoint of a concentration-inhibition curve) fell in the range of 1 to 50 µM.
The value for `O=C(c1sccc1-c1ccccc1Oc1ccccc1)N1CCNC[C@H]1Cc1ccccc1` [Example 1, ((R)-2-benzylpiperazin-1-yl)(3-(2-phenoxyphenyl)thiophen-2-yl)methanone] was under 1 µM; that for `O=C(c1c(-c2ccccc2Cl)noc1C1CC1)N1CCNC[C@H]1Cc1ccccc1` [Example 33, ((R)-2-benzylpiperazin-1-yl)(3-(2-chlorophenyl)-5-cyclopropylisoxazol-4-yl)methanone] was 1 to 50 µM.
As to `CC(=O)NCCc1ccccc1Oc1ccccc1-c1ccsc1C(=O)N1CCNC[C@H]1Cc1ccccc1` [Example 39, N-(2-(2-(2-((R)-2-benzylpiperazine-1-carbonyl)thiophen-3-yl)phenoxy)phenethyl)acetamide], the IC50 is under 1 µM.
`O=C(c1ccccc1-c1ccc(F)cc1)N1CCNC[C@H]1Cc1ccccc1` [Example 31, (R)-(2-benzylpiperazin-1-yl)(4′-fluorobiphenyl-2-yl)methanone]: the IC50 was in the range of 1 to 50 µM.
Take `N#Cc1cccnc1Oc1ccccc1-c1ccsc1C(=O)N1CCNC[C@H]1Cc1ccccc1` [Example 11, 2-(2-(2-((R)-2-benzylpiperazine-1-carbonyl)thiophen-3-yl)phenoxy)nicotinonitrile]: the IC50 was 1 to 50 µM.
Take `O=C(c1ccccc1)c1ccccc1C(=O)N1CCNC[C@H]1Cc1ccccc1` [Example 22, (R)-(2-benzoylphenyl)(2-benzylpiperazin-1-yl)methanone]: the IC50 is 1 to 50 µM.
In the case of `O=C(c1cncn1-c1ccccc1-c1ccccc1)N1CCNC[C@H]1Cc1ccccc1` [Example 27, ((R)-2-benzylpiperazin-1-yl)(1-(biphenyl-2-yl)-1H-imidazol-5-yl)methanone], the IC50 fell in the range of 1 to 50 µM.
For `Cc1noc(-c2ccccc2)c1C(=O)N1CCNC[C@H]1Cc1ccccc1` [Example 29, (R)-(2-benzylpiperazin-1-yl)(3-methyl-5-phenylisoxazol-4-yl)methanone], the IC50 lay in the range of 50 to 100 µM.
`Cc1ccc(-c2ccccc2C(=O)N2CCNC[C@H]2Cc2ccccc2)cc1C` [Example 3, (R)-(2-benzylpiperazin-1-yl)(3′,4′-dimethylbiphenyl-2-yl)methanone]: the 50% inhibitory concentration (IC50) is under 1 µM.
For the compound `O=C(c1ccccc1OCc1ccccc1)N1CCNC[C@H]1Cc1ccccc1` [Example 23, (R)-(2-(benzyloxy)phenyl)(2-benzylpiperazin-1-yl)methanone], the IC50 was 1 to 50 µM.
For the compound `O=C(c1cc(F)ccc1-c1ccccc1Oc1ccccc1)N1CCNC[C@H]1Cc1ccccc1` [Example 16, ((R)-2-benzylpiperazin-1-yl)(4-fluoro-2′-phenoxybiphenyl-2-yl)methanone], the IC50 lay within 1 to 50 µM.
Turning to `O=C(c1cccn1-c1ccccc1Oc1ccccc1)N1CCNC[C@H]1Cc1ccccc1` [Example 42, ((R)-2-benzylpiperazin-1-yl)(1-(2-phenoxyphenyl)-1H-pyrrol-2-yl)methanone], the IC50 was 1 to 50 µM.
Regarding `O=C(c1nccn1-c1ccccc1C(F)(F)F)N1CCNC[C@H]1Cc1ccccc1` [Example 8, ((R)-2-benzylpiperazin-1-yl)(1-(2-(trifluoromethyl)phenyl)-1H-imidazol-2-yl)methanone], the IC50 lay in the range of 50 to 100 µM.
The same measure for `O=C(c1ccccc1-c1nc2ccccc2s1)N1CCNC[C@H]1Cc1ccccc1` [Example 32, (R)-(2-(benzo[d]thiazol-2-yl)phenyl)(2-benzylpiperazin-1-yl)methanone]: 1 to 50 µM.
On to `CC1(C)Cc2cccc(C(=O)N3CCNC[C@H]3Cc3ccccc3)c2O1` [Example 35, (R)-(2-benzylpiperazin-1-yl)(2,2-dimethyl-2,3-dihydrobenzofuran-7-yl)methanone], for which the concentration for half-maximal inhibition (IC50) was in the range of 1 to 50 µM.
As to `Cc1nn(C)c(C(=O)N2CCNC[C@H]2Cc2ccccc2)c1-c1ccccc1Oc1ccccc1` [Example 13, ((R)-2-benzylpiperazin-1-yl)(1,3-dimethyl-4-(2-phenoxyphenyl)-1H-pyrazol-5-yl)methanone], the IC50 fell in the range of 1 to 50 µM.
As to `CC(C)(C)n1ncc(C(=O)N2CCNC[C@H]2Cc2ccccc2)c1-c1ccccc1` [Example 38, (R)-(2-benzylpiperazin-1-yl)(1-tert-butyl-5-phenyl-1H-pyrazol-4-yl)methanone], the IC50 fell in the range of 1 to 50 µM.
Turning to `Cc1cc(C)c(C#N)c(Oc2ccccc2-c2ccsc2C(=O)N2CCNC[C@H]2Cc2ccccc2)n1` [Example 9, 2-(2-(2-((R)-2-benzylpiperazine-1-carbonyl)thiophen-3-yl)phenoxy)-4,6-dimethylnicotinonitrile], the IC50 lay within 1 to 50 µM.
In the case of `O=C(c1ccc(-c2ccccc2Oc2ccccc2)o1)N1CCNC[C@H]1Cc1ccccc1` [Example 45, (R)-(2-benzylpiperazin-1-yl)(5-(2-phenoxyphenyl)furan-2-yl)methanone], the IC50 lay within 1 to 50 µM.
For `COc1ccc(C(=O)c2ccccc2C(=O)N2CCNC[C@H]2Cc2ccccc2)cc1` [Example 25, (R)-(2-benzylpiperazin-1-yl)(2-(4-methoxybenzoyl)phenyl)methanone], the IC50 lay in the range of 50 to 100 µM.
Take `O=C(c1ccc(F)cc1-c1ccccc1Oc1ccccc1)N1CCNC[C@H]1Cc1ccccc1` [Example 15, ((R)-2-benzylpiperazin-1-yl)(5-fluoro-2′-phenoxybiphenyl-2-yl)methanone]: the IC50 is 1 to 50 µM.
`Cc1cc2cc(C(=O)N3CCNC[C@H]3Cc3ccccc3)n(Cc3ccccc3)c2s1` [Example 34, (R)-(6-benzyl-2-methyl-6H-thieno[2,3-b]pyrrol-5-yl)(2-benzylpiperazin-1-yl)methanone]: the half-inhibitory concentration (IC50) was 1 to 50 µM.
As to `O=C(c1ccnn1-c1ccccc1)N1CCNC[C@H]1Cc1ccccc1` [Example 6, (R)-(2-benzylpiperazin-1-yl)(1-phenyl-1H-pyrazol-5-yl)methanone], the IC50 was in the range of 1 to 50 µM.
Consider `Cc1n[nH]c(C)c1-c1ccccc1C(=O)N1CCNC[C@H]1Cc1ccccc1` [Example 28, ((R)-2-benzylpiperazin-1-yl)(2-(3,5-dimethyl-1H-pyrazol-4-yl)phenyl)methanone], for which the IC50 was over 100 µM.
For the compound `O=C(c1ncoc1-c1ccccc1)N1CCNC[C@H]1Cc1ccccc1` [Example 7, (R)-(2-benzylpiperazin-1-yl)(5-phenyloxazol-4-yl)methanone], the IC50 is 1 to 50 µM.
`O=C(c1cc(-c2ccc(Cl)cc2)cs1)N1CCNC[C@H]1Cc1ccccc1` [Example 36, (R)-(2-benzylpiperazin-1-yl)(4-(4-chlorophenyl)thiophen-2-yl)methanone]: the IC50 was 1 to 50 µM.
With `O=C1CC(C(=O)N2CCNC[C@H]2Cc2ccccc2)CN1C(c1ccccc1)c1ccccc1` (stereo partly drawn) [Example 24, 1-benzhydryl-4-((R)-2-benzylpiperazine-1-carbonyl)pyrrolidin-2-one], the IC50 was in the range of 1 to 50 µM.
As for `O=C(c1ccsc1-c1ccccc1-c1ccccc1)N1CCNC[C@H]1Cc1ccccc1` [Example 19, ((R)-2-benzylpiperazin-1-yl)(2-(biphenyl-2-yl)-thiophen-3-yl)-methanone], the IC50 fell in the range of 1 to 50 µM.
As to `CC(=O)NCc1cccnc1Oc1ccccc1-c1ccsc1C(=O)N1CCNC[C@H]1Cc1ccccc1` [Example 40, N-((2-(2-(2-((R)-2-benzylpiperazine-1-carbonyl)thiophen-3-yl)phenoxy)pyridin-3-yl)methyl)acetamide], the IC50 lay in the range of 1 to 50 µM.
As to `O=C(c1cncn1-c1cccc2ccccc12)N1CCNC[C@H]1Cc1ccccc1` [Example 26, ((R)-2-benzylpiperazin-1-yl)(1-(naphthalen-1-yl)-1H-imidazol-5-yl)methanone], the IC50 was over 100 µM.
